Source: patent publication US20240393292A1, “ALLERGY ANTIGEN AND EPITOPE THEREOF” (HOYU CO., LTD., priority 2019, published 2024)
Blank lines part the entries; values can stand above or below the substance they belong to.

System: IgE antibodies from patients
Test: Wheat epitope mapping (2): overlapping 10-amino-acid peptide fragments shifted by one amino acid;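 for Rank of partial sequence as epitope binding to IgE antibody: key = sequence deemed particularly important within the common 15-residue sequence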;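 for epitope sequence binding to IgE antibody, rank (Key/Preferably/More preferably): key of grades: preferably = shorter partial sequence still acting as epitope; more preferably = sequence improving IgE binding; key = particularly important sequence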
Type: binding, human
Summary of the method: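 Residual binding was banded as <30% none, 30–<50% poor, 50–<70% somewhat poor and ≥70% retained, relative to the parent overlapping sequence set to 100%. Values were chemiluminescent IgE signals from patient sera after subtracting secondary-antibody-only controls. The peptides were spot-synthesised 10-mers shifted by one amino acid.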

[1] = serum of patient G7 (adult, general immediate type allergy to wheat), partial sequence
[2] = serum of patient P2 (WDEIA), sequence without X
[3] = serum of patient G7 (adult, general immediate type allergy to wheat), sequence without X
[4] = serum of patient P21 (WDEIA), sequence without X
[5] = serum of patient P53 (child, general immediate type allergy to wheat), sequence without X
[6] = serum of patient P2 (WDEIA), partial sequence
[7] = serum of patient P17 (WDEIA), sequence without X
[8] = serum of patient G4 (adult, general immediate type allergy to wheat)
[9] = serum of patient P35 (WDEIA), partial sequence
[10] = serum of patient P10 (WDEIA), sequence without X
[11] = serum of patient P34 (WDEIA), sequence without X

epitope sequence binding to IgE antibody, rank (Key/Preferably/More preferably) (serum of patient P17 (WDEIA)): Key
Substance: 1933 (VPLVQQ; REGION 1..6: note = epitope) [compound 1933]

Epitope sequence binding to IgE antibody, rank of the sequence (serum of patient P35 (WDEIA), sequence without X): Preferably
Substance: 1401 (KPWQQQ; REGION 1..6: note = epitope) [compound 1401]

Epitope sequence binding to IgE antibody, rank of the sequence [1]: Key
Substance: 2542 (SSQVSF; REGION 1..6: note = epitope) [compound 2542]

Epitope sequence binding to IgE antibody, rank of the sequence (Key/Preferably/More preferably/Further preferably) [2]: Key
Substance: 1368 (KPWQQQ; REGION 1..6: note = epitope) [compound 1368]

Epitope sequence binding to IgE antibody, rank of the sequence (serum of patient P17 (WDEIA), partial sequence): Key
Substance: 2714 (GIGTVPVGRV; REGION 1..10: note = epitope) [compound 2714]

Epitope sequence binding to IgE antibody, rank of the sequence (serum of patient P51 (child, general immediate type allergy to wheat), sequence without X): Key
Substance: 1361 (NVEN; REGION 1..4: note = epitope) [compound 1361]

Epitope sequence binding to IgE antibody, rank of the sequence (Key/Preferably/More preferably) (serum of patient P26 (WDEIA), sequence without X): Preferably
Substance: 2284 (LGGIDK; REGION 1..6: note = epitope) [compound 2284]

Epitope sequence binding to IgE antibody, rank of the sequence (serum of patient P25 (WDEIA), partial sequence): Key
Substance: 2721 (GIGTVPVG; REGION 1..8: note = epitope) [compound 2721]

Epitope sequence binding to IgE antibody, rank of the sequence (serum of patient G2 (adult, general immediate type allergy to wheat), partial sequence): Key
Substance: 2531 (FQPSQLN; REGION 1..7: note = epitope) [compound 2531]

Epitope sequence binding to IgE antibody, rank of the sequence (Key/Preferably/More preferably) (serum of patient G9 (adult, general immediate type allergy to wheat), sequence without X): Preferably
Substance: 2305 (LGGIDK; REGION 1..6: note = epitope) [compound 2305]

Epitope sequence binding to IgE antibody, rank of the sequence (Key/Preferably/More preferably) [2]: Key
Substance: 2220 (NYRV; REGION 1..4: note = epitope) [compound 2220]

Rank of partial sequence as epitope binding to IgE antibody (serum of patient P33 (WDEIA), sequence without X): Key
Substance: 1480 (YLQPQQPIS; REGION 1..9: note = epitope) [compound 1480]

Epitope sequence binding to IgE antibody, rank of the sequence (serum of patient P16 (WDEIA), partial sequence): Preferably
Substance: 2709 (YKIGGIGT; REGION 1..8: note = epitope) [compound 2709]

Rank of partial sequence as epitope binding to IgE antibody [3]: Key
Substance: 1502 (LQPQQP; REGION 1..6: note = epitope) [compound 1502]

Epitope sequence binding to IgE antibody, rank of the sequence (serum of patient P33 (WDEIA), partial sequence): Preferably
Substance: 2742 (YKIGGIGTVP; REGION 1..10: note = epitope) [compound 2742]

Epitope sequence binding to IgE antibody, rank of the sequence [4]: Key
Substance: 1394 (QPLP; REGION 1..4: note = epitope) [compound 1394]

Rank of partial sequence as epitope binding to IgE antibody [4]: Key
Substance: 1619 (FVPISG; REGION 1..6: note = epitope) [compound 1619]

Epitope sequence binding to IgE antibody, rank of the sequence (Key/Preferably/More preferably) [5]: Preferably
Substance: 2255 (LLRGIRNYRV; REGION 1..10: note = epitope) [compound 2255]

epitope sequence binding to IgE antibody, rank (Key/Preferably/More preferably) (serum of patient P15 (WDEIA)): Key
Substance: 1928 (VPLVQQQ; REGION 1..7: note = epitope) [compound 1928]

epitope sequence binding to IgE antibody, rank (Key/Preferably/More preferably) (serum of patient G7 (adult, general immediate type allergy to wheat)): Key
Substance: 1891 (YTVRTL; REGION 1..6: note = epitope) [compound 1891]

epitope sequence binding to IgE antibody, rank (Key/Preferably/More preferably) (serum of patient P16 (WDEIA)): More preferably
Substance: 1848 (YTVRTLQRT; REGION 1..9: note = epitope) [compound 1848]

Epitope sequence binding to IgE antibody, rank of the sequence [6]: Key
Substance: 2615 (SLSKRV; REGION 1..6: note = epitope) [compound 2615]

Epitope sequence binding to IgE antibody, rank of the sequence (Key/Preferably/More preferably) (serum of patient P28 (WDEIA), sequence without X): Key
Substance: 2379 (HDIDRCAY; REGION 1..8: note = epitope) [compound 2379]

Epitope sequence binding to IgE antibody, rank of the sequence [6]: Key
Substance: 2495 (FQPSQLNPQ; REGION 1..9: note = epitope) [compound 2495]

Epitope sequence binding to IgE antibody, rank of the sequence (Key/Preferably/More preferably) [7]: Key
Substance: 2225 (VSRLLRGIRN; REGION 1..10: note = epitope) [compound 2225]

Rank of partial sequence as epitope binding to IgE antibody (serum of patient P3 (WDEIA), sequence without X): Preferably
Substance: 1567 (PFPQTQQ; REGION 1..7: note = epitope) [compound 1567]

epitope sequence binding to IgE antibody, rank (Key/Preferably/More preferably) [8]: Key
Substance: 1781 (KEVSSYLKKV; REGION 1..10: note = epitope) [compound 1781]

Epitope sequence binding to IgE antibody, rank of the sequence [1]: Key
Substance: 2627 (LLASLSKRV; REGION 1..9: note = epitope) [compound 2627]

epitope sequence binding to IgE antibody, rank (Key/Preferably/More preferably) (serum of patient P30 (WDEIA)): Key
Substance: 1765 (YLKKVGYN; REGION 1..8: note = epitope) [compound 1765]

Rank of partial sequence as epitope binding to IgE antibody (serum of patient P14 (WDEIA), sequence without X): Preferably
Substance: 1428 (YLQPQQPIS; REGION 1..9: note = epitope) [compound 1428]

Rank of partial sequence as epitope binding to IgE antibody [3]: More preferably
Substance: 1562 (QVPLVQQQQF; REGION 1..10: note = epitope) [compound 1562]

Epitope sequence binding to IgE antibody, rank of the sequence [9]: Key
Substance: 2694 (YKGPTL; REGION 1..6: note = epitope) [compound 2694]

Epitope sequence binding to IgE antibody, rank of the sequence (Key/Preferably/More preferably) (serum of patient P52 (child, general immediate type allergy to wheat), sequence without X): More preferably
Substance: 2472 (SGKTENEE; REGION 1..8: note = epitope) [compound 2472]

epitope sequence binding to IgE antibody, rank (Key/Preferably/More preferably) (serum of patient P22 (WDEIA)): Preferably
Substance: 1945 (FPGQQ; REGION 1..5: note = epitope) [compound 1945]

Epitope sequence binding to IgE antibody, rank of the sequence [10]: Key
Substance: 1223 (IQQQP; REGION 1..5: note = epitope) [compound 1223]

Epitope sequence binding to IgE antibody, rank of the sequence (serum of patient P8 (WDEIA), partial sequence): Key
Substance: 2501 (SFQPSQLNPQ; REGION 1..10: note = epitope) [compound 2501]

Epitope sequence binding to IgE antibody, rank of the sequence (serum of patient P20 (WDEIA), partial sequence): Key
Substance: 2556 (QLVQQLCC; REGION 1..8: note = epitope) [compound 2556]

Epitope sequence binding to IgE antibody, rank of the sequence (Key/Preferably/More preferably) [5]: Key
Substance: 2330 (AIRAI; REGION 1..5: note = epitope) [compound 2330]

Epitope sequence binding to IgE antibody, rank of the sequence [11]: Preferably
Substance: 1351 (INVEN; REGION 1..5: note = epitope) [compound 1351]

Epitope sequence binding to IgE antibody, rank of the sequence (serum of patient P56 (child, general immediate type allergy to wheat), partial sequence): Further preferably
Substance: 2523 (PSQLNPQA; REGION 1..8: note = epitope) [compound 2523]

Epitope sequence binding to IgE antibody, rank of the sequence (Key/Preferably/More preferably) [11]: Preferably
Substance: 2292 (KRVIERFEK; REGION 1..9: note = epitope) [compound 2292]

Epitope sequence binding to IgE antibody, rank of the sequence (serum of patient P18 (WDEIA), partial sequence): Key
Substance: 2718 (GIGTVPVGRV; REGION 1..10: note = epitope) [compound 2718]

Epitope sequence binding to IgE antibody, rank of the sequence (Key/Preferably/More preferably) [7]: Key
Substance: 2226 (RNYR; REGION 1..4: note = epitope) [compound 2226]

Epitope sequence binding to IgE antibody, rank of the sequence [9]: Key
Substance: 2593 (QLVQ; REGION 1..4: note = epitope) [compound 2593]

epitope sequence binding to IgE antibody, rank (Key/Preferably/More preferably) (serum of patient P7 (WDEIA)): Preferably
Substance: 1908 (QVPLVQQ; REGION 1..7: note = epitope) [compound 1908]

epitope sequence binding to IgE antibody, rank (Key/Preferably/More preferably) (serum of patient P33 (WDEIA)): Key
Substance: 1819 (SGKELEALPK; REGION 1..10: note = epitope) [compound 1819]

epitope sequence binding to IgE antibody, rank (Key/Preferably/More preferably) [8]: Key
Substance: 1783 (KVGYNP; REGION 1..6: note = epitope) [compound 1783]

epitope sequence binding to IgE antibody, rank (Key/Preferably/More preferably) (serum of patient P18 (WDEIA)): Key
Substance: 1858 (RTLQ; REGION 1..4: note = epitope) [compound 1858]

Rank of partial sequence as epitope binding to IgE antibody [10]: Preferably
Substance: 1525 (LVQQQQFLG; REGION 1..9: note = epitope) [compound 1525]

Epitope sequence binding to IgE antibody, rank of the sequence (serum of patient P13 (WDEIA), sequence without X): Preferably
Substance: 1229 (PIQQQP; REGION 1..6: note = epitope) [compound 1229]
